Data published in PubChem BioAssay (NCI).
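Exposure lasted 48 hours, with cells grown in 96-well plates and compounds tested at five concentrations. Abbreviation: GI50, concentration required for 50% inhibition of growth. TGI marks complete inhibition of growth.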

Columns and labels:
Assay in all cases: NCI tumour cell line growth inhibition, 48 h
[1] = test system: UACC-257 melanoma
[2] = test system: NCI-H226 lung
[3] = test system: SF-295 CNS
[4] = test system: HCC-2998 colon
[5] = test system: SW-620 colon
[6] = test system: SNB-75 CNS
[7] = test system: OVCAR-4 ovarian
[8] = test system: BT-549 breast
[9] = test system: ACHN renal
[10] = test system: IGROV1 ovarian
[11] = test system: A549 NSCLC
[12] = test system: SK-MEL-5 melanoma
[13] = test system: OVCAR-3 ovarian
[14] = test system: MCF7 breast
[15] = test system: KM12 colon
[16] = test system: SNB-19 CNS
[17] = test system: U251 CNS
[18] = test system: NCI/ADR-RES ovarian
[19] = test system: HOP-62 NSCLC
[20] = test system: MALME-3M melanoma
[21] = test system: CCRF-CEM leukemia
[22] = test system: OVCAR-5 ovarian
[23] = test system: T-47D breast
[24] = test system: HCT-15 colon
[25] = test system: SF-268 CNS
[26] = test system: EKVX NSCLC
[27] = test system: COLO 205 colon
[28] = test system: MDA-MB-231 breast
[29] = test system: K-562 leukemia
[30] = test system: HT29 colon
[31] = test system: HS 578T breast
[32] = test system: UACC-62 melanoma
[33] = test system: MOLT-4 leukemia
[34] = test system: MDA-MB-435
[35] = test system: OVCAR-8 ovarian
[36] = test system: NCI-H460 lung
[37] = test system: NCI-H23 lung
[38] = test system: SN12C renal
[39] = test system: TK-10 renal
[40] = test system: SK-MEL-28 melanoma
[41] = test system: RXF 393 renal
[42] = test system: HL-60(TB) leukemia
[43] = test system: M14 melanoma
[44] = test system: UO-31 renal
[45] = test system: RPMI-8226 leukemia
[46] = test system: SK-OV-3 ovarian
[47] = test system: SK-MEL-2 melanoma
[48] = test system: LOX IMVI melanoma
[49] = test system: A498 renal
[50] = test system: PC-3 prostate
[51] = test system: SF-539 CNS
[52] = test system: CAKI-1 renal
[53] = test system: 786-0 renal
[54] = test system: HCT-116 colon
[55] = test system: DU-145 prostate
[56] = test system: HOP-92 NSCLC
[57] = test system: SR leukemia
[58] = test system: NCI-H522 lung

Work on `O=CN1N=C(c2cccc(Nc3ccnc4cc(Cl)ccc34)c2)CC1c1ccccc1` (stereo unspecified) yielded a GI50 [1] of 301 nM, a TGI [1] of 37.6 µM and a GI50 [2] of 3.32 µM. It also gave a TGI [2] of over 55.7 µM, a GI50 [3] of 306 nM and a TGI [3] of 1660 nM. For the same compound, the GI50 [4] was 1030 nM, the TGI [4] was 5.57 µM and the GI50 [5] was 311 nM. It also gave a TGI [5] of 14.7 µM, a GI50 [6] of 191 nM and a TGI [6] of 1830 nM. For the same compound, the GI50 [7] was 536 nM, the TGI [7] was over 100 µM and the GI50 [8] was 207 nM. It also gave a TGI [8] of 1510 nM, a GI50 [9] of 778 nM and a TGI [9] of over 79.4 µM. The GI50 [10] was 687 nM, the TGI [10] was over 100 µM and the GI50 [11] was 501 nM. It also gave a TGI [11] of over 26.2 µM, a GI50 [12] of 315 nM and a TGI [12] of 2020 nM. It also gave a GI50 [13] of 269 nM, a TGI [13] of 774 nM and a GI50 [14] of 311 nM. For the same compound, the TGI [14] was over 33 µM, the GI50 [15] was 315 nM and the TGI [15] was 12.7 µM. It also gave a GI50 [16] of 585 nM, a TGI [16] of over 100 µM and a GI50 [17] of 358 nM. The TGI [17] was 1550 nM, the GI50 [18] was 290 nM and the TGI [18] was 1170 nM. The GI50 [19] was 495 nM, the TGI [19] was 17.3 µM and the GI50 [20] was 373 nM. For the same compound, the TGI [20] was over 100 µM, the GI50 [21] was 310 nM and the TGI [21] was 1480 nM. It also gave a GI50 [22] of 1500 nM, a TGI [22] of over 100 µM and a GI50 [23] of 381 nM. The TGI [23] was 9.59 µM, the GI50 [24] was 511 nM and the TGI [24] was over 100 µM. The GI50 [25] was 768 nM, the TGI [25] was 41.2 µM and the GI50 [26] was 949 nM. It also gave a TGI [26] of over 100 µM, a GI50 [27] of 350 nM and a TGI [27] of 2760 nM. The GI50 [28] was 858 nM, the TGI [28] was over 21.3 µM and the GI50 [29] was 301 nM. It also gave a TGI [29] of 10.5 µM, a GI50 [30] of 327 nM and a TGI [30] of 1150 nM. For the same compound, the GI50 [31] was 248 nM, the TGI [31] was 3.4 µM and the GI50 [32] was 444 nM. The TGI [32] was 21.8 µM, the GI50 [33] was 383 nM and the TGI [33] was 2770 nM. The GI50 [34] was 88.9 nM, the TGI [34] was 432 nM and the GI50 [35] was 553 nM. It also gave a TGI [35] of 7.5 µM, a GI50 [36] of 393 nM and a TGI [36] of 8.4 µM. The GI50 [37] was 551 nM, the TGI [37] was over 36.8 µM and the GI50 [38] was 617 nM. It also gave a TGI [38] of over 54.3 µM, a GI50 [39] of 345 nM and a TGI [39] of 16.4 µM. For the same compound, the GI50 [40] was 650 nM, the TGI [40] was 24.6 µM and the GI50 [41] was 336 nM. It also gave a TGI [41] of 3.58 µM, a GI50 [42] of 213 nM and a TGI [42] of 487 nM. The GI50 [43] was 284 nM, the TGI [43] was 6.75 µM and the GI50 [44] was 408 nM. For the same compound, the TGI [44] was over 100 µM, the GI50 [45] was 471 nM and the TGI [45] was 4.51 µM. For the same compound, the GI50 [46] was 363 nM, the TGI [46] was 14.3 µM and the GI50 [47] was 258 nM. It also gave a TGI [47] of 825 nM, a GI50 [48] of 449 nM and a TGI [48] of 4.34 µM. For the same compound, the GI50 [49] was 230 nM, the TGI [49] was 1100 nM and the GI50 [50] was 306 nM. For the same compound, the TGI [50] was 42.7 µM, the GI50 [51] was 370 nM and the TGI [51] was 2490 nM. It also gave a GI50 [52] of 348 nM, a TGI [52] of 7.54 µM and a GI50 [53] of 543 nM. For the same compound, the TGI [53] was 18 µM, the GI50 [54] was 364 nM and the TGI [54] was 1630 nM. For the same compound, the GI50 [55] was 440 nM, the TGI [55] was 16.8 µM and the GI50 [56] was 209 nM. For the same compound, the TGI [56] was 787 nM, the GI50 [57] was 201 nM and the TGI [57] was 1720 nM. The GI50 [58] was 185 nM and the TGI [58] was 633 nM.
